Measurements published in patent US8999970B2, “Administration of an anti-obesity compound to individuals with renal impairment” (Arena Pharmaceuticals, Inc., priority 2010, dated 2015).

Key:
[1] = Pivotal phase 3 clinical trial program (weight loss); format: in vivo, human
Excerpt: (§1) In December 2009, Arena Pharmaceuticals submitted a New Drug Application, or NDA, for lorcaserin to the FDA. The NDA submission is based on an extensive data package from lorcaserin's clinical development program that includes 18 clinical trials totaling 8,576 patients. […] About two-thirds of patients achieved at least 5% weight loss and over one-third achieved at least 10% weight loss. On average, patients lost 17 to 18 pounds or about 8% of their weight. Secondary endpoints, including body composition, lipids, cardiovascular risk factors and glycemic parameters improved compared to placebo. In addition, heart rate and blood pressure went down. […] Lorcaserin improved quality of life, and there was no signal for depression or suicidal ideation. The only adverse event that exceeded the placebo rate by 5% was generally mild or moderate, transient headache. Based on a normal BMI of 25, patients in the first phase 3 trial lost about one-third of their excess body weight. The average weight loss was 35 pounds or 16% of body weight for the top quartile of patients in the second phase 3 trial.
as §1, with “Heart” for “In addition, heart”

[2] = Toxicity studies in monkeys (single dose, 28-day, 13-week, 12-month); format: in vivo, cynomolgus monkeys; details: for Exposure multiple relative to human exposure at 10 mg BID: monkeys 100 mg/kg/day
Method: In cynomolgus monkeys, dose-limiting emesis occurred at 300 mg/kg single dose. In repeat
In a 28-day repeat dose study, one male given 100 mg/kg/day experienced a seizure. […] Reduced weight gain and food consumption occurred in 28-day, 13-week and 12-month studies at doses ≧10 mg/kg/day. Cholesterol, LDL and HDL decreased at ≧10 mg/kg/day in the 12-month study. […] The NOAEL was considered to be 2 mg/kg/day.
This animal continued treatment on Day 2 and no further seizures were observed throughout the duration of the study. […] A reduction in serum lipids (cholesterol, HDL, and LDL) was measured in both sexes treated with ≧10 mg/kg doses of lorcaserin. Reductions in total cholesterol and LDL occurred in some animals treated with 2 mg/kg as well. There was a dose-independent reduction in the mean triglyceride concentration in both sexes at ≧2 mg/kg. Mild increases in ALT occurred primarily in females at all dose levels and in one control animal. White blood cells in the urine of some females dosed at ≧50 mg/kg/day were thought to be associated with renal tubular changes noted histologically in three out of five cases.
There were no lorcaserin-related gross findings. Histologic changes were identified in the kidneys, ovaries, and possibly in the liver. Changes in the kidney consisted of focal or multifocal tubular epithelial cell degeneration, regeneration, and cellular casts. […] The histologic renal changes attributed to lorcaserin were not associated with changes in serum chemistry or kidney function. A review of the renal findings was conducted by two expert human renal pathologists, each of whom independently read blinded slides and reached the same conclusion: the administration of lorcaserin to monkeys for 12 months was not associated with drug-related renal pathology. […] One of these pathologists attributed the potential finding of regeneration to a staining artifact resulting in a bluish cytoplasmic discoloration. […] This change was reversible after a one month drug-free interval. […] The lipidosis was not present in animals sacrificed after a one month drug-free interval. No changes were identified by the study pathologist or the peer review pathologist in the heart, heart valves, pulmonary vessels or lungs of animals given lorcaserin compared to controls.
Changes in the kidney consisted of focal tubular epithelial cell degeneration, regeneration, and cellular casts. […] These findings were not observed in previous monkey studies, and no similar kidney findings occurred in rodents. Renal findings were determined to be unrelated to lorcaserin treatment by two independent human renal pathologists after reviewing blinded slide sets. In their independent opinions, the findings were not dose related and were consistent with age and focal inflammation or infection. One pathologist attributed the findings of regeneration to a staining artifact, resulting in a bluish cytoplasmic discoloration. If tubular renal epithelial regeneration were artifactual, renal findings of the conducting laboratory would be limited to the high dose. At 2, 10, 50, and 125 mg/kg, the margins were 1.0 and 0.6, 8 and 5, 44 and 31, and 51 and 51 times human exposure at the MRD for males and females, respectively. Renal findings in rodents and monkeys were of uncertain relationship to lorcaserin. Substantial margins over human exposure exist for all renal finding in rodents, and in monkeys according to two expert human renal pathologists. Even assuming the renal findings in monkeys are drug related, the principal findings were focal or multifocal, minimal to mild (1 instance of moderate regeneration at the high dose) renal tubular epithelial regeneration and degeneration that would have had to have been much more severe and diffuse to be of clinical relevance. Based upon adverse events, clinical chemistry and urinalyses in an extensive phase 2 and phase 3 program, there is no evidence of a lorcaserin effect on the kidney in humans.

[3] = phase 3 program, treated for up to two years

C[C@H]1CNCCc2ccc(Cl)cc21 [Lorcaserin, (R)-8-chloro-1-methyl-2,3,4,5-tetrahydro-1H-3-benzazepine]
Excess body weight lost ([1]; first phase 3 trial, based on a normal BMI of 25): about one-third | Average weight lost, of their weight ([1]; phase 3 program): about 8% | Risk of cardiac valvulopathy ([1]; phase 3 program): did not increase the risk | Patients who achieved at least 5% weight loss [1, 3]: About two-thirds | Patients who achieved at least 10% weight loss [1, 3]: over one-third | Average weight loss, top quartile of patients ([1]; second phase 3 trial): 35 pounds | Average weight loss, top quartile of patients, of body weight ([1]; second phase 3 trial): 16% | NOAEL at 12 months ([2]; both sexes, cynomolgus monkey, in vivo, oral, monkeys, 12-month study): 2 mg/kg/day | MTD ([2]; cynomolgus monkey, in vivo, oral, monkeys, repeat dose studies, read-out: Maximum tolerated dose): 100 to 125 mg/kg/day | Single dose with dose-limiting emesis ([2]; cynomolgus monkeys): 300 mg/kg | Margin, times human exposure at the MRD ([2]; monkeys 2 mg/kg, females): 0.6 times | Margin, times human exposure at the MRD ([2]; monkeys 2 mg/kg, males): 1.0 times | Margin, times human exposure at the MRD ([2]; monkeys 10 mg/kg, females): 5 times | Margin, times human exposure at the MRD ([2]; monkeys 10 mg/kg, males): 8 times | Margin, times human exposure at the MRD ([2]; monkeys 50 mg/kg, females): 31 times | Margin, times human exposure at the MRD ([2]; monkeys 50 mg/kg, males): 44 times | Exposure multiple relative to human exposure at 10 mg BID ([2]; females): 68 | Exposure multiple relative to human exposure at 10 mg BID ([2]; males): 74 | Margin, times human exposure at the MRD ([2]; monkeys 125 mg/kg, females): 51 times | Margin, times human exposure at the MRD ([2]; monkeys 125 mg/kg, males): 51 times | Animals with focal renal tubular epithelial cell degeneration and/or regeneration (minimal to mild regeneration in renal cortex) ([2]; monkeys 12 months, 2 mg/kg): 1/8 | Females with cystic ovarian follicles ([2]; monkeys 12 months, 2 mg/kg): 0/4 | Animals with hepatic lipidosis ([2]; monkeys 12 months, 2 mg/kg/day): 4/8 | Animals with focal renal tubular epithelial cell degeneration and/or regeneration (minimal to mild regeneration in renal cortex) ([2]; monkeys 12 months, 10 mg/kg): 2/8 | Females with cystic ovarian follicles ([2]; monkeys 12 months, 10 mg/kg): 1/4 | Animals with hepatic lipidosis ([2]; monkeys 12 months, 10 mg/kg/day): 2/8 | Animals with focal renal tubular epithelial cell degeneration and/or regeneration (minimal to mild regeneration in renal cortex) ([2]; monkeys 12 months, 50 mg/kg): 3/8 | Females with cystic ovarian follicles ([2]; monkeys 12 months, 50 mg/kg): 1/4 | Males with cellular casts ([2]; monkeys 12 months, 50 mg/kg): 1/4 | Animals with hepatic lipidosis ([2]; monkeys 12 months, 50 mg/kg/day): 3/8 | Animals with cellular casts ([2]; monkeys 12 months, 125 mg/kg): 4/4 | Animals with focal renal tubular epithelial cell degeneration and/or regeneration (minimal to mild regeneration in renal cortex) ([2]; monkeys 12 months, 125 mg/kg): 6/8 | Females with cellular casts ([2]; monkeys 12 months, 125 mg/kg): 2/4 | Females with cystic ovarian follicles ([2]; monkeys 12 months, 125 mg/kg): 3/4 | Males with cellular casts ([2]; monkeys 12 months, 125 mg/kg): 1/4 | Animals with regeneration (incl. moderate) ([2]; monkeys 12 months, 125 mg/kg group): 7/8 | Animals with hepatic lipidosis ([2]; monkeys 12 months, 250 mg/kg/day): 4/8 | Doses with dose-dependent decrease in activity and hunched appearance ([2]; monkeys 12 months, both sexes): ≥ 10 mg/kg | Females with moderate epithelial regeneration ([2]; monkeys 12 months, high dose): 1/4 | Animals with minimal to mild tubular epithelial degeneration ([2]; monkeys 12 months, high dose group (125 mg/kg)): 6 of 8 | Doses at which cholesterol, LDL and HDL decreased ([2]; monkeys, 12-month study): ≥ 10 mg/kg/day | Lorcaserin-related deaths ([2]; monkeys, 12-month study): no lorcaserin-related deaths | Doses with reduced weight gain and food consumption ([2]; monkeys, 28-day, 13-week and 12-month studies): ≥ 10 mg/kg/day
